According to ChEMBL document CHEMBL3045852, “Synthesis of limonoid CDE fragments related to limonin and nimbinim” (2010):

System: Spodoptera littoralis
Assay: Antifeedant activity against Spodoptera littoralis
Format: functional

Row | SMILES | AFI [%]
1 | CC1(C)CC(=O)C[C@@]2(C)[C@H](c3ccsc3)C(=O)[C@H]3O[C@@]312 | 24
2 | CC1(C)CC(=O)C[C@@]2(C)[C@H](c3ccoc3)C(=O)[C@H]3O[C@@]312 (relative stereo) | 45
